Data: patent publication US20060258746A1, “Oral medicament for improvement in going to sleep or waking” (Kyowa Hakko Kogyo Co., Ltd., priority 2005, published 2006)

What was measured:
[1] = system: normal subjects; assay: Test Example 2: double blind parallel group test against tablets without ornithine, going to sleep and waking rated by Visual Analogue Scale (VAS) method; format: in vivo, human; details: 6 tablets of example 1 a day for 3 weeks; 7 subjects per group; 45 to 64 year
Method: Six tablets of example 1 (the tablet containing ornithine) or 6 tablets of comparative example 1 (the tablet not containing ornithine) were administered to two groups with 7 subjects out of 14 normal subjects of each male and female between 45 to 64 year a day for 3 weeks.
Before the administration and just after the administration, the improvements in going to sleep and waking of each subject were evaluated using Visual Analogue Scale (VAS) method.
Specifically each end of the segment has a criterion of expression. Referring to FIG. 1, each subject marked somewhere in the line, corresponding to each term of the questionnaires. The distance (mm) from the left end of the line to the marked point was measured and the difference between before and after the test was calculated. The difference by the value before the test was shown in the percentage calculated; and each average value and standard deviation for each group were calculated. Further the average improvement ratio (%) was the value obtained by subtracting the average value of the placebo group from the average value of ornithine group. Further, it was confirmed that there was no difference between two groups before the administration test.
Further the test was carried out under a random assignment and the comparison between the double blind parallel groups was carried out. […]

[2] = system: subjects; assay: Test Example 1: intake of ornithine tablets, improvement in waking compared with before administration; format: in vivo, human

## NCCC[C@H](N)C(=O)O [ornithine]
[1]
  improvement in going to sleep (VAS, average improvement ratio vs placebo group, FIG. 2): improvement in going to sleep were obtained
  improvement in the waking process (VAS, average improvement ratio vs placebo group, FIG. 2): improvement in the waking process was evident
[2]; oral intake of ornithine tablets
  effect on the waking process (conclusion of test result): improved the waking process
[2]; oral, ornithine taken just before going to sleep
  subjects who showed an improvement in waking: 3 subjects out of the 6 subjects
[2]; oral, taken just before going to sleep
  effect of intake just before going to sleep (conclusion of test result): effective
